Each cell line was assayed with N[C@@H]1CCCN(c2c(/C=C3\SC(=O)NC3=O)cccc2-c2ccccc2)C1 [AZD1208] + O=C(CCCCCCC(=O)Nc1ccccc1)NO [Vorinostat] (partner 1 µM) (assay: relative viability (nuclei count vs DMSO), 5 days (fraction); higher = more cells survive). Conditions: first compound 0.08 µM.
In short: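 Nuclei were stained with Hoechst during a one-step fixation (final 0.05% Triton X-100, 1% formaldehyde, 1 ug/ml Hoechst) carried out 5 days after dosing, then counted on 4× images. The cells, lung cancer lines in 1536-well plates, had been dosed by pin tool the day after seeding with one drug alone or a fixed anchor-drug dose plus five library-drug doses (not always all listed) in √10 steps. Relative viability is the nuclei count in treated wells divided by that in vehicle wells, and each value is the median of duplicate plates.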

How did the relative viability turn out when NCI-H2126 was run?
The relative viability was 0.745.

Which relative viability does the source give for NCI-H2342 here?
Its relative viability is 0.831.

With SK-MES-1 as the cell line, how does the relative viability read?
The relative viability was 1.07.

Which relative viability does the source give for IA-LM here?
Its relative viability is 0.922.

Which relative viability does the source give for NCI-H2170 here?
Its relative viability is 0.864.

For HCC-44, which relative viability is on record?
Its relative viability is 1.2.

How did the relative viability turn out when SW 900 was run?
The relative viability was 0.519.

How did the relative viability turn out when NCI-H1648 was run?
The relative viability was 0.371.

Which relative viability does the source give for NCI-H727 here?
The relative viability was 0.925.

With NCI-H1395 as the cell line, how does the relative viability read?
Its relative viability is 0.974.

How did the relative viability turn out when NCI-H1793 was run?
Its relative viability is 0.841.

Which relative viability does the source give for NCI-H1944 here?
The relative viability was 0.596.

With ABC-1 as the cell line, how does the relative viability read?
The relative viability was 1.75.

How did the relative viability turn out when NCI-H358 was run?
The relative viability was 0.719.

Same assay, conditions: first compound 0.253 µM

With NCI-H522 as the cell line, how does the relative viability read?
The relative viability was 0.75.

With NCI-H838 as the cell line, how does the relative viability read?
The relative viability was 0.661.

NCI-H1650 was tested. Which relative viability did it give?
Its relative viability is 0.464.

For NCI-H2009, which relative viability is on record?
Its relative viability is 0.777.

Which relative viability does the source give for NCI-H1993 here?
Its relative viability is 0.63.

Which relative viability does the source give for PC-14 here?
The relative viability was 0.78.

Which relative viability does the source give for LCLC-103H here?
The relative viability was 0.858.

Which relative viability does the source give for NCI-H596 here?
Its relative viability is 0.632.

How did the relative viability turn out when NCI-H2228 was run?
The relative viability was 0.624.

EMC-BAC-2 was tested. Which relative viability did it give?
The relative viability was 0.394.

How did the relative viability turn out when NCI-H2087 was run?
Its relative viability is 0.795.

For HCC-366, which relative viability is on record?
The relative viability was 0.473.

For NCI-H1666, which relative viability is on record?
The relative viability was 1.02.

Which relative viability does the source give for NCI-H647 here?
The relative viability was 0.701.

Which relative viability does the source give for LK-2 here?
The relative viability was 0.322.

How did the relative viability turn out when NCI-H2126 was run?
Its relative viability is 0.669.

NCI-H2342 was tested. Which relative viability did it give?
The relative viability was 0.702.

With SK-MES-1 as the cell line, how does the relative viability read?
The relative viability was 1.14.

For IA-LM, which relative viability is on record?
Its relative viability is 1.27.

For NCI-H2170, which relative viability is on record?
Its relative viability is 0.923.

How did the relative viability turn out when HCC-44 was run?
Its relative viability is 1.09.

For SW 900, which relative viability is on record?
The relative viability was 0.638.

Which relative viability does the source give for NCI-H1648 here?
The relative viability was 0.491.

How did the relative viability turn out when NCI-H727 was run?
The relative viability was 1.14.

For NCI-H1395, which relative viability is on record?
The relative viability was 0.731.

Which relative viability does the source give for NCI-H1793 here?
Its relative viability is 0.949.

For NCI-H1944, which relative viability is on record?
Its relative viability is 0.665.

With ABC-1 as the cell line, how does the relative viability read?
The relative viability was 1.08.

NCI-H358 was tested. Which relative viability did it give?
Its relative viability is 0.646.

Same assay, conditions: first compound 0.8 µM

NCI-H522 was tested. Which relative viability did it give?
The relative viability was 0.768.

Which relative viability does the source give for NCI-H838 here?
The relative viability was 0.639.

For NCI-H1650, which relative viability is on record?
Its relative viability is 0.643.

NCI-H2009 was tested. Which relative viability did it give?
Its relative viability is 0.698.

With NCI-H1993 as the cell line, how does the relative viability read?
Its relative viability is 0.726.

How did the relative viability turn out when PC-14 was run?
Its relative viability is 0.719.

For LCLC-103H, which relative viability is on record?
Its relative viability is 0.789.

Which relative viability does the source give for NCI-H596 here?
The relative viability was 0.558.

With NCI-H2228 as the cell line, how does the relative viability read?
Its relative viability is 0.793.

Which relative viability does the source give for EMC-BAC-2 here?
Its relative viability is 0.447.

NCI-H2087 was tested. Which relative viability did it give?
The relative viability was 0.752.

With HCC-366 as the cell line, how does the relative viability read?
The relative viability was 0.391.

Which relative viability does the source give for NCI-H1666 here?
The relative viability was 0.887.

Which relative viability does the source give for NCI-H647 here?
Its relative viability is 0.643.

How did the relative viability turn out when LK-2 was run?
Its relative viability is 0.255.

For NCI-H2126, which relative viability is on record?
The relative viability was 0.676.

NCI-H2342 was tested. Which relative viability did it give?
The relative viability was 0.604.

How did the relative viability turn out when SK-MES-1 was run?
The relative viability was 1.07.

For IA-LM, which relative viability is on record?
The relative viability was 0.778.

With NCI-H2170 as the cell line, how does the relative viability read?
The relative viability was 0.76.

How did the relative viability turn out when HCC-44 was run?
The relative viability was 1.13.

SW 900 was tested. Which relative viability did it give?
Its relative viability is 0.35.

Which relative viability does the source give for NCI-H1648 here?
The relative viability was 0.298.

With NCI-H727 as the cell line, how does the relative viability read?
Its relative viability is 1.11.

How did the relative viability turn out when NCI-H1395 was run?
The relative viability was 0.632.

NCI-H1793 was tested. Which relative viability did it give?
The relative viability was 0.752.

With NCI-H1944 as the cell line, how does the relative viability read?
Its relative viability is 0.618.

ABC-1 was tested. Which relative viability did it give?
The relative viability was 0.922.

How did the relative viability turn out when NCI-H358 was run?
Its relative viability is 0.576.

Same assay, conditions: first compound 2.53 µM

For NCI-H522, which relative viability is on record?
The relative viability was 0.828.

Which relative viability does the source give for NCI-H838 here?
The relative viability was 0.682.

With NCI-H1650 as the cell line, how does the relative viability read?
Its relative viability is 0.588.

How did the relative viability turn out when NCI-H2009 was run?
Its relative viability is 0.788.

How did the relative viability turn out when NCI-H1993 was run?
Its relative viability is 0.548.

PC-14 was tested. Which relative viability did it give?
The relative viability was 0.687.

For LCLC-103H, which relative viability is on record?
Its relative viability is 0.613.

How did the relative viability turn out when NCI-H596 was run?
The relative viability was 0.661.

For NCI-H2228, which relative viability is on record?
Its relative viability is 0.448.

Which relative viability does the source give for EMC-BAC-2 here?
The relative viability was 0.469.

For NCI-H2087, which relative viability is on record?
Its relative viability is 0.73.

With HCC-366 as the cell line, how does the relative viability read?
The relative viability was 0.36.

Which relative viability does the source give for NCI-H1666 here?
Its relative viability is 0.966.

Which relative viability does the source give for NCI-H647 here?
Its relative viability is 0.428.

LK-2 was tested. Which relative viability did it give?
The relative viability was 0.302.

Which relative viability does the source give for NCI-H2126 here?
The relative viability was 0.535.

For NCI-H2342, which relative viability is on record?
Its relative viability is 0.799.

With SK-MES-1 as the cell line, how does the relative viability read?
The relative viability was 1.01.

For IA-LM, which relative viability is on record?
Its relative viability is 0.863.

NCI-H2170 was tested. Which relative viability did it give?
Its relative viability is 0.779.

HCC-44 was tested. Which relative viability did it give?
Its relative viability is 1.11.

How did the relative viability turn out when SW 900 was run?
Its relative viability is 0.605.

For NCI-H1648, which relative viability is on record?
The relative viability was 0.36.

Which relative viability does the source give for NCI-H727 here?
The relative viability was 1.11.

How did the relative viability turn out when NCI-H1395 was run?
The relative viability was 0.698.

NCI-H1793 was tested. Which relative viability did it give?
The relative viability was 0.954.

NCI-H1944 was tested. Which relative viability did it give?
The relative viability was 0.468.

How did the relative viability turn out when ABC-1 was run?
Its relative viability is 0.997.

With NCI-H358 as the cell line, how does the relative viability read?
Its relative viability is 0.678.

Same assay, conditions: first compound 8 µM

Which relative viability does the source give for NCI-H522 here?
The relative viability was 0.836.

How did the relative viability turn out when NCI-H838 was run?
The relative viability was 0.689.

How did the relative viability turn out when NCI-H1650 was run?
Its relative viability is 0.472.

Which relative viability does the source give for NCI-H2009 here?
The relative viability was 0.67.

Which relative viability does the source give for NCI-H1993 here?
The relative viability was 0.501.

With PC-14 as the cell line, how does the relative viability read?
Its relative viability is 0.604.

Which relative viability does the source give for LCLC-103H here?
The relative viability was 0.697.

Which relative viability does the source give for NCI-H596 here?
Its relative viability is 0.48.

NCI-H2228 was tested. Which relative viability did it give?
Its relative viability is 0.464.

With EMC-BAC-2 as the cell line, how does the relative viability read?
Its relative viability is 0.399.

For NCI-H2087, which relative viability is on record?
Its relative viability is 0.406.

HCC-366 was tested. Which relative viability did it give?
Its relative viability is 0.291.

For NCI-H1666, which relative viability is on record?
The relative viability was 0.908.

How did the relative viability turn out when NCI-H647 was run?
Its relative viability is 0.256.

How did the relative viability turn out when LK-2 was run?
Its relative viability is 0.247.

With NCI-H2126 as the cell line, how does the relative viability read?
The relative viability was 0.563.

How did the relative viability turn out when NCI-H2342 was run?
The relative viability was 0.597.

Which relative viability does the source give for SK-MES-1 here?
The relative viability was 1.02.

How did the relative viability turn out when IA-LM was run?
Its relative viability is 0.853.

For NCI-H2170, which relative viability is on record?
The relative viability was 0.5.

HCC-44 was tested. Which relative viability did it give?
The relative viability was 1.12.

With SW 900 as the cell line, how does the relative viability read?
Its relative viability is 0.512.

How did the relative viability turn out when NCI-H1648 was run?
Its relative viability is 0.89.

NCI-H727 was tested. Which relative viability did it give?
Its relative viability is 1.03.

For NCI-H1395, which relative viability is on record?
Its relative viability is 0.546.

NCI-H1793 was tested. Which relative viability did it give?
The relative viability was 0.713.

With NCI-H1944 as the cell line, how does the relative viability read?
Its relative viability is 0.379.

How did the relative viability turn out when ABC-1 was run?
Its relative viability is 1.02.

For NCI-H358, which relative viability is on record?
Its relative viability is 0.618.

From the supplement of paper PMC10307832
